# Where two headings read alike, the source gives them in different places.
# Legend:
# [1] = test system: P. falciparum Dd2; experiment: microbe, parasite or virus in culture; set-up: species or system P. falciparum Dd2 in human red blood cells; SYBR Green I asexual blood stage proliferation (DNA) assay, P. falciparum Dd2, 96 h; conditions: Plasmodium falciparum, DD2, Erythrocyte, 96 h, read-out: CDD P. falciparum Sybr Green I ABS Dd2 Dose Response: IC50 (uM)
# [2] = test system: P. falciparum Dd2 (PfLuc) line expressing firefly luciferase, asexual blood stage; experiment: microbe, parasite or virus in culture; set-up: species or system P. falciparum Dd2-luciferase in human red blood cells; PfLuc Dd2 asexual blood stage luciferase viability, BrightGlo luminescence, 96 h; conditions: Plasmodium falciparum, DD2, Erythrocyte
# Procedure: (§1) A transgenic line of Plasmodium falciparum (Dd2) constitutively expressing firefly luciferase was used for primary and reconfirmation screening. Cultures were maintained in complete media at 5% hematocrit (Human Whole Blood O+) and incubated at 37 °C in a low oxygen environment (3% O2, 5% CO2, and 92% N2). Culture health and parasitemia were tracked by Giemsa staining and bright field microscopy. Prior to dispensing parasites for primary screening, 20 nL of test compounds and 10 nL of control compounds (artemisinin and DMSO) were seeded per well using an Echo 550 acoustic dispenser (Labcyte) for final assay concentrations of 5 and 10 μM, respectively. When parasite cultures reached 3% to 8% parasitemia, as determined by a blood smear, infected blood was centrifuged at 800g for 5 min. […] From this blood mixture, 8 μL was dispensed per well in 1536-well, white, solid-bottom plates (789173-F, Greiner) using a MultiFlo FX Multi-Mode dispenser (BioTek). Plates were covered with a porous metal lid and incubated at 37 °C inside large plastic Ziploc bags filled with a blood gas mixture (3% O2, 5% CO2, and 92% N2) for 96 h. To prevent evaporation, a clean tray of water was included within each bag. Following incubation, BrightGlo was prepared by manufacturer specifications and dispensed at 2 μL per well using the MultiFlo dispenser. Plates were left for 20 min before being read with the ViewLux uHTS microplate imager (PerkinElmer) with a 90 s exposure time at the High Sensitivity Luminescence setting. Raw data were processed using GeneData (v12.0.5), whereby activity was normalized to negative minus positive controls. The correction of Runwise Pattern (Multiplicative) was applied, and compounds were considered hits when activity was reduced by ≥70%. […] Also, plates tested in 11-point dose response format were incubated at both 48 a The primary assay was run at a compound concentration of 5 μM. Briefly, 8 μL of an ABS parasite mixture (∼10,000 parasites) was dispensed into 1536-well plates previously spotted with 64,811 GHCDL compounds (the remaining 3642 library compounds arrived later and were evaluated separately). After a 96 h incubation, 2 μL of luciferin (BrightGlo) was added, and the luminescent signal was measured. Bioluminescence was normalized to DMSO (negative control) and artemisinin-treated (positive control) wells for the single point screens. For this primary screen, assay fidelity was determined on a per plate basis using both the Z′-factor and the potency variance of the positive (artemisinin) and negative (DMSO) controls. The mean Z′ value was 0.60 (range of 0.43–0.75), with only one plate falling below our ideal 0.5 threshold (Figure S1).
# [3] = test system: P. falciparum Dd2 (PfLuc) line expressing firefly luciferase, asexual blood stage; experiment: microbe, parasite or virus in culture; set-up: species or system P. falciparum Dd2-luciferase in human red blood cells; PfLuc Dd2 asexual blood stage luciferase viability, BrightGlo luminescence, 48 h; conditions: Plasmodium falciparum, DD2, Erythrocyte, read-out: CDD P. falciparum Luciferase 11pt dose response (48hr, n=2): IC50 (μM), 11-point
# Procedure: as §1, with “From these (Sets 1 and 2),” for “The primary assay was run at a compound concentration of 5 μM. Briefly, 8 μL of an ABS parasite mixture (∼10,000 parasites) was dispensed into 1536-well plates previously spotted with 64,811 GHCDL”, “were resupplied as fresh powders” for “(the remaining 3642 library compounds arrived later”, “and” for “and were”, “in 11-point dose response tests (Pfluc; n = 2)” for “separately). After a 96 h incubation, 2 μL of luciferin (BrightGlo) was added, and the luminescent signal was measured. Bioluminescence was normalized to DMSO (negative control) and artemisinin-treated (positive control) wells”, “two time points.” for “single point screens. For this primary screen, assay fidelity was determined on a per plate basis using both the Z′-factor and the potency variance of the positive (artemisinin) and negative (DMSO) controls. The mean Z′ value was 0.60 (range of 0.43–0.75), with only one plate falling below our ideal 0.5 threshold (Figure S1).”
# [4] = test system: P. falciparum (NF54) stage V gametocytes; experiment: Stage V gametocyte viability assay (MitoTracker Red CMXRos high content imaging); format: cell-based, Plasmodium falciparum; conditions: Plasmodium falciparum, NF54, 72 h; for IC50: read-out: Stg V Gam dose response IC50 (µM) (n=3), 10-point dose response, n=3, 72 h; for inhibition at 2 µM: read-out: Stg V Gam primary screen: Inhibition % (2uM) (n=2)
# [5] = test system: P. falciparum Dd2 (PfLuc) line expressing firefly luciferase, asexual blood stage; experiment: microbe, parasite or virus in culture; format: cell-based, Plasmodium falciparum; conditions: Plasmodium falciparum
# [6] = test system: P. falciparum Dd2; experiment: SYBR green I asexual blood stage proliferation assay (96 h); format: cell-based, Plasmodium falciparum; conditions: Plasmodium falciparum, DD2, 11-pt dose response, 96hr
# [7] = test system: HepG2-A16-CD81 hepatocytes; experiment: cells; set-up: Uninfected hepatocyte viability, CellTiter-Glo luminescence; conditions: sheet CDD Export 1;, cytotoxicity primary screen, read-out: Table S5. Liver stage reconfirmation data / HepG2 Cytotoxicity primary screen (2uM): % Inhibition
# Procedure: For the screen, 5 μL of HepG2-A16-CD81 hepatocytes containing 3 × 10^3 cells was seeded into 1536-well plates, which had been prespotted with 10 nL of library compound (2 μM final assay concentration (Figure 1)) and incubated overnight. For PbLuc infected plates, approximately 750 purified sporozoites in 5 μL of screening media were added to each well and incubated for 48 h before measuring luciferase activity. Compounds were tested for toxicity in parallel (see Methods) by measuring uninfected hepatocyte viability using CellTiter-Glo. […] This hit rate was slightly lower than expected for an agnostic library, which prompted us to rescreen the entire library at 10 μM. The PbLuc and cytotoxicity assay plates for this second replicate would be stamped in-house with 50 nL of library compound per well, using the same compound plates as the sexual stage screen described below. All the assay parameters were kept similar, except the change in concentration and shortening the time the compounds spent in each well prior to infection. […] All potential false positive effectors from the CellTiter-Glo assay were filtered from subsequent studies (Table S1). Naturally, there were more primary hits from the 10 μM than the 2 μM screen due to the higher testing concentration. For reconfirmation, we sourced all the hits that inhibited PbLuc at >70% and mean HepG2 at <50% in the 2 μM screen or PbLuc at >60% in both 2 and 10 μM screens and mean HepG2 at <50%. The resulting compounds were acquired as DMSO stocks and retested in the dose response (50–2.82 × 10^–4 μM or 25–141.13 × 10^–6 μM) against PbLuc and uninfected hepatocytes (Table S5). […] The majority of these compounds were weak inhibitors, although 18 submicromolar hits were found (Table S5).
# [8] = read-out: CDD P. falciparum Luc 11pt dose response (96hr, n=2): IC50 (μM), 11-point
compound,measurement,setting,value
CN(C)CCCNCCC(c1ccccc1)C1CCOC(C)(C)C1 (centres unmarked) [DDD01026663],IC50,[1],> 1.39 µM
same,IC50,[2]; [8],0.627 µM
same,IC50,[3],2.82 µM
"CC(C)C[C@H](N)C(=O)N1CC2(CCNCC2)c2cc(Cl)ccc21 [DDD01029528, CC(C)C[C@H](N)C(=O)N1CC2(CCNCC2)C2=CC(Cl)=CC=C12]",IC50,[1],1.52 µM
same,IC50,[2]; [8],0.553 µM
same,IC50,[3],1.79 µM
same,IC50,[4],3.02 µM
same,inhibition at 2 µM,[4],49.8%
Cc1ccc(-c2ccccc2CC2(C(=O)NC(C)C)CCCNC2)cc1 (centres unmarked) [DDD01056815],IC50,[1],> 4.16 µM
same,IC50,[2]; [8],0.863 µM
same,IC50,[3],> 4.16 µM
CN(C)CCNC(=O)c1sc2ccccc2c1C1CCC(CN)CC1 (centres unmarked) [DDD01058779],IC50,[1],1.65 µM
same,IC50,[2]; [8],2.3 µM
same,IC50,[3],1.31 µM
CCOC(=O)C1(Cc2ccccc2-c2ccccc2OC)CCNCC1 [DDD01059034],IC50,[1],> 4.16 µM
same,IC50,[2]; [8],0.861 µM
same,IC50,[3],5.11 µM
"Cc1cn2c(n1)C(CNCC1=Cc3ccccc3OC1)CCC2 (centres unmarked) [DDD01073292, CC1=CN2CCCC(CNCC3=CC4=CC=CC=C4OC3)C2=N1]",IC50,"[5]; DD2, read-out: P. falciparum Luciferase ABS 11-pt Reconfirmation Dose Response (48hr): IC50, 11-pt dose response, 48hr",4.19 µM
same,IC50,"[5]; DD2, 8-pt dose response, 96hr, read-out: P. falciparum Luciferase ABS 8-pt Reconfirmation Dose Response (96hr): IC50",1.65 µM
same,Emax,"[5]; DD2, 8-pt dose response, 96hr, read-out: P. falciparum Luciferase ABS 8-pt Reconfirmation Dose Response (96hr): Maximum inhibition (%)",93%
same,IC50,"[5]; DD2, 11-pt dose response, 96hr, read-out: P. falciparum Luciferase ABS 11-pt Reconfirmation Dose Response (96hr): IC50",1.84 µM
same,Emax,"[5]; DD2, 11-pt dose response, 96hr, read-out: P. falciparum Luciferase ABS 11-pt Reconfirmation Dose Response (96hr): Maximum inhibition (%)",99.3%
same,IC50,[6]; read-out: P. falciparum Sybr Green I ABS 11-pt Reconfirmation Dose Response (96hr): IC50,2320 nM
same,Emax,[6]; read-out: P. falciparum Sybr Green I ABS 11-pt Reconfirmation Dose Response (96hr): Maximum inhibition (%),83.8%
same,inhibition at 2 µM,[7],-0.92%
same,IC50,[4],1.31 µM
same,inhibition at 2 µM,[4],66%
c1cc(-c2n[nH]cc2-c2ccnc(N3CCCC3)n2)ccn1 [DDD01235828],IC50,"[5]; DD2, read-out: CDD P. falciparum Luciferase ABS 11-pt Reconfirmation Dose Response (48hr): IC50 (μM), 11-pt dose response, 48hr",> 4.16 µM
same,Emax,"[5]; DD2, 8-pt dose response, 96hr, read-out: CDD P. falciparum Luciferase ABS 8-pt Reconfirmation Dose Response (96hr): Maximum inhibition (%)",91%
same,Emax,"[5]; DD2, 11-pt dose response, 48hr, read-out: CDD P. falciparum Luciferase ABS 11-pt Reconfirmation Dose Response (48hr): Maximum inhibition (%)",53.9%
same,IC50,"[5]; DD2, 11-pt dose response, 96hr, read-out: CDD P. falciparum Luciferase ABS 11-pt Reconfirmation Dose Response (96hr): IC50",0.167 µM
same,Emax,"[5]; DD2, 11-pt dose response, 96hr, read-out: CDD P. falciparum Luciferase ABS 11-pt Reconfirmation Dose Response (96hr): Maximum inhibition (%)",92%
same,IC50,"[5]; 96 h incubation, Dd2 luciferase, read-out: 96 hour Pfluc IC50",0.17 µM
same,IC50,"[2]; 8-point, 96 h, DMSO stocks, read-out: CDD P. falciparum Luciferase ABS 8-pt Reconfirmation Dose Response (96hr): IC50",0.0618 µM
same,IC50,"[6]; Sybr Green I, read-out: CDD P. falciparum Sybr Green I ABS 11-pt Reconfirmation Dose Response (96hr): IC50",37 nM
same,Emax,"[6]; Sybr Green I, read-out: CDD P. falciparum Sybr Green I ABS 11-pt Reconfirmation Dose Response (96hr): Maximum inhibition (%)",79.4%
CNc1nc(C)c(-c2nc(-c3c(C)ncc4c3CCNC4)no2)s1 [DDD01244276],IC50,[1],1.65 µM
same,IC50,[2]; [8],0.337 µM
same,IC50,[3],0.956 µM
Cc1cc(N2CCC(NC(C)Cc3ccsc3)CC2)nc(N)n1 (centres unmarked) [DDD01252553],IC50,[1],1.01 µM
same,IC50,[2]; [8],0.246 µM
same,IC50,[3],1.11 µM
c1ccc(CCCN2CCN(c3ccc4nncn4n3)CC2)cc1 [DDD01295523],IC50,[2]; [8],0.912 µM
same,IC50,[3],3.86 µM
COc1cc(C(=O)NCc2ccc3c(c2)CCCN3C)cc(OC)c1Br [DDD01300030],IC50,[1],> 12.5 µM
same,IC50,[2]; [8],2.46 µM
same,IC50,[3],5.74 µM
COc1ccc(CNCC2CCN(CC(C)O)CC2)c2ccccc12 (centres unmarked) [DDD01302860],IC50,[1],0.743 µM
same,IC50,[2]; [8],0.621 µM
same,IC50,[3],1.27 µM
